Usually inhibition stands for the share of the control response that was lost under treatment. A lower inhibition goes with little suppression.

In this series the target is T1, CYP3A4 (Homo sapiens, UniProt P08684).
T1 construct: pre-incubated with human liver microsomes and NADPH; from tissue; host or cells: human liver microsomes
T1 sequence (P08684 whole entry): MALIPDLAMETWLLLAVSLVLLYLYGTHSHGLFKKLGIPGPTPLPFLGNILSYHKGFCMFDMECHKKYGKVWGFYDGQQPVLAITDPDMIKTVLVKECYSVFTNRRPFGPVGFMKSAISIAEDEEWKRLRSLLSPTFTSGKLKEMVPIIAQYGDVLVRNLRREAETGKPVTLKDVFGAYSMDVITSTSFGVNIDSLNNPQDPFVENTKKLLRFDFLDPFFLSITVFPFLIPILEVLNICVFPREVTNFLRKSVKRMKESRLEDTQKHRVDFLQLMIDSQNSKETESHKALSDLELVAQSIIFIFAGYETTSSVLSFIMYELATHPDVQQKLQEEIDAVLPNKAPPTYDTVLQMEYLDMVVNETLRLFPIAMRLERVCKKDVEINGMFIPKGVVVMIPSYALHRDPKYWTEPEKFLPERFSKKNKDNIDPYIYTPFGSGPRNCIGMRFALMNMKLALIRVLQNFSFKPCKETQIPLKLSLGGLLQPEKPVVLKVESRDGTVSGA
Put plainly: Cytochrome P450 inhibition assay (midazolam hydroxylation). It is filed as in vitro ADME. Conditions: human, human liver microsomes, probe midazolam (hydroxylation to 1′-hydroxymidazolam), 10 μM test compound, midazolam at approximately its Km. The method, then: Compounds were tested for the potential to induce drug-drug interactions by inhibition of the cytochrome P450 3A4 isoform. The assay evaluated the metabolism of a specific marker substrate (CYP3A4, midazolam hydroxylation to 1′-hydroxymidazolam) in the presence or absence of 10 μM test compound. The concentration of the marker substrate was approximately its Km (Dixit et al., Biopharm. Drug Dispos. 2007, 28(5), 257-262). A specific inhibitor for the isoform was included in each run to validate the system. An appropriate positive control inhibitor was used. Mechanism-based inhibition was investigated where warranted using a classical method. To evaluate time-dependent inhibition, parallel samples may have been included where […] was pre-incubated with human liver microsomes and NADPH for 30 min prior to the addition of the P450 substrate. The percent inhibition of the pre-incubated and non-pre-incubated samples were compared as a preliminary evaluation of time-dependent inhibition.
(In general: Microsomes from liver hold many membrane-bound enzymes, among them those of drug oxidation.)
Compound `C[C@@H]1CCCN(C(=O)c2c(F)cccc2-c2ncccn2)[C@@H]1CNc1ccc(C(F)(F)F)cn1` [Example A241, (2-Fluoro-6-(pyrimidin-2-yl)phenyl)((2S,3R)-3-methyl-2-(((5-(trifluoromethyl)pyridin-2-yl)amino)methyl)piperidin-1-yl)methanone] showed an inhibition at 10 µM of 62%.
Under `Cc1ccc(-n2nccn2)c(C(=O)N2CCC[C@@H](C)[C@H]2CNc2nnc(C(F)(F)F)s2)n1` [Example A191, ((2S,3R)-3-Methyl-2-(((5-(trifluoromethyl)-1,3,4-thiadiazol-2-yl)amino)methyl)piperidin-1-yl)(6-methyl-3-(2H-1,2,3-triazol-2-yl)pyridin-2-yl)methanone] stands 44%; under `Cc1ccc(-n2nccn2)c(C(=O)N2CCC[C@@H](C)[C@H]2CNc2ncccc2C#N)c1` [Example A90, 2-((((2S,3R)-3-Methyl-1-(5-methyl-2-(2H-1,2,3-triazol-2-yl)benzoyl)piperidin-2-yl)methyl)amino)nicotinonitrile], 33%; under `Cc1ccc(-n2nccn2)c(C(=O)N2CCC[C@@H](C)[C@H]2CNc2ncc(F)cc2F)c1` [Example A172, ((2S,3R)-2-(((3,5-Difluoropyridin-2-yl)amino)methyl)-3-methylpiperidin-1-yl)(5-methyl-2-(2H-1,2,3-triazol-2-yl)phenyl)methanone], 76%.
`Cc1ccc(-n2nccn2)c(C(=O)N2CCC[C@@H](C)[C@H]2CNc2ncc(Cl)cc2F)c1` [Example A173, ((2S,3R)-2-(((5-Chloro-3-fluoropyridin-2-yl)amino)methyl)-3-methylpiperidin-1-yl)(5-methyl-2-(2H-1,2,3-triazol-2-yl)phenyl)methanone]: the inhibition at 10 µM amounted to 81%.
With `Cc1ccc(-c2cnn(C)c2)c(C(=O)N2CCC[C@@H](C)[C@H]2CNc2cccc(C#N)n2)c1` [Example A86, 6-((((2S,3R)-3-Methyl-1-(5-methyl-2-(1-methyl-1H-pyrazol-4-yl)benzoyl)piperidin-2-yl)methyl)amino)picolinonitrile], 10 µM produced 95% inhibition.
With `Cc1ccc(-c2ccccn2)c(C(=O)N2CCC[C@@H](C)[C@H]2CNc2nc3cc(Cl)ccc3o2)c1` [Example A32, ((2S,3R)-2-(((5-Chlorobenzo[d]oxazol-2-yl)amino)methyl)-3-methylpiperidin-1-yl)(5-methyl-2-(pyridin-2-yl)phenyl)methanone], the inhibition at 10 µM was determined as 92%.
Consider `C[C@@H]1CCCN(C(=O)c2cc(F)ccc2-n2nccn2)[C@@H]1CNc1ncc(C(F)(F)F)cn1` [Example A207, (5-Fluoro-2-(2H-1,2,3-triazol-2-yl)phenyl)((2S,3R)-3-methyl-2-(((5-(trifluoromethyl)pyrimidin-2-yl)amino)methyl)piperidin-1-yl)methanone], for which the inhibition at 10 µM came out at 44%.
For the compound `COc1ncc(-c2ccc(C)cc2C(=O)N2CCC[C@@H](C)[C@H]2CNc2ccc(C(F)(F)F)cn2)cn1` [Example A4, (2-(2-Methoxypyrimidin-5-yl)-5-methylphenyl)((2S,3R)-3-methyl-2-(((5-(trifluoromethyl)pyridin-2-yl)amino)methyl)piperidin-1-yl)methanone], the inhibition at 10 µM is 96%.
Under `Cc1ccc(-n2ncc(C)n2)c(C(=O)N2CCC[C@@H](C)[C@H]2CNc2nc3cc(F)ccc3o2)c1` [Example A141, ((2S,3R)-2-(((5-Fluorobenzo[d]oxazol-2-yl)amino)methyl)-3-methylpiperidin-1-yl)(5-methyl-2-(4-methyl-2H-1,2,3-triazol-2-yl)phenyl)methanone] stands 72%; under `Cc1nc(C(=O)N2CCCC(C)C2CNc2ncc(C(F)(F)F)cn2)c(-c2ccc(F)cc2)s1` (racemic) [Example A311, (+/−)-cis-(5-(4-Fluorophenyl)-2-methylthiazol-4-yl)(3-methyl-2-(((5-(trifluoromethyl)pyrimidin-2-yl)amino)methyl)piperidin-1-yl)methanone], 57%; under `Cc1cccc(C(=O)N2CCC[C@@H](C)[C@H]2CNc2ncc(C(F)(F)F)cn2)c1-c1ncccn1` [Example A299, ((2S,3R)-3-Methyl-2-(((5-(trifluoromethyl)pyrimidin-2-yl)amino)methyl)piperidin-1-yl)(3-methyl-2-(pyrimidin-2-yl)phenyl)methanone], 51%.
On to `Cc1ccc(-n2nccn2)c(C(=O)N2CCC[C@@H](C)[C@H]2CNc2nccc(C(F)(F)F)n2)c1` [Example A163, ((2S,3R)-3-Methyl-2-(((4-(trifluoromethyl)pyrimidin-2-yl)amino)methyl)piperidin-1-yl)(5-methyl-2-(2H-1,2,3-triazol-2-yl)phenyl)methanone], for which at 10 µM the inhibition was 90%.
With `Cc1ccc(-n2nccn2)c(C(=O)N2CCC[C@@H](C)[C@H]2CNc2cccc(C(F)(F)F)n2)c1` [Example A89, ((2S,3R)-3-Methyl-2-(((6-(trifluoromethyl)pyridin-2-yl)amino)methyl)piperidin-1-yl)(5-methyl-2-(2H-1,2,3-triazol-2-yl)phenyl)methanone], the inhibition at 10 µM is 92%.
Turning to `Cc1ccc(-c2cncn2C)c(C(=O)N2CCC[C@@H](C)[C@H]2CNc2ccc(C(F)(F)F)cn2)c1` [Example A26, ((2S,3R)-3-Methyl-2-(((5-(trifluoromethyl)pyridin-2-yl)amino)methyl)piperidin-1-yl)(5-methyl-2-(1-methyl-1H-imidazol-5-yl)phenyl)methanone], the inhibition at 10 µM stood at 99%.
With `Cc1ccc(-n2cccn2)c(C(=O)N2CCC[C@@H](C)[C@H]2CNc2ccc(C(F)(F)F)nn2)n1` [Example A164, ((2S,3R)-3-Methyl-2-(((6-(trifluoromethyl)pyridazin-3-yl)amino)methyl)piperidin-1-yl)(6-methyl-3-(1H-pyrazol-1-yl)pyridin-2-yl)methanone], at 10 µM the inhibition was 37%.
In turn, `Cc1ccc(-c2ccccn2)c(C(=O)N2CCC[C@@H](C)[C@H]2CNc2nnc(C(F)(F)F)s2)c1` [Example A151, ((2S,3R)-3-Methyl-2-(((5-(trifluoromethyl)-1,3,4-thiadiazol-2-yl)amino)methyl)piperidin-1-yl)(5-methyl-2-(pyridin-2-yl)phenyl)methanone] came in with an inhibition at 10 µM of 86%.
For the compound `Cc1ccc(-c2cccc(C)n2)c(C(=O)N2CCC[C@@H](C)[C@H]2CNc2ccc(C(F)(F)F)cn2)c1` [Example A104, ((2S,3R)-3-Methyl-2-(((5-(trifluoromethyl)pyridin-2-yl)amino)methyl)piperidin-1-yl)(5-methyl-2-(6-methylpyridin-2-yl)phenyl)methanone], the inhibition at 10 µM was 91%.
In the case of `Cc1ccc(-n2ccnc2)c(C(=O)N2CCC[C@@H](C)[C@H]2CNc2nc3cc(Cl)ccc3o2)c1` [Example A33, (2-(1H-Imidazol-1-yl)-5-methylphenyl)((2S,3R)-2-(((5-chlorobenzo[d]oxazol-2-yl)amino)methyl)-3-methylpiperidin-1-yl)methanone], 10 µM produced 98% inhibition.
Regarding `Cc1ccc(-n2nccn2)c(C(=O)N2CCC[C@@H](C)[C@H]2CNc2ncc3ccc(C)cc3n2)c1` [Example A215, ((2S,3R)-3-Methyl-2-(((7-methylquinazolin-2-yl)amino)methyl)piperidin-1-yl)(5-methyl-2-(2H-1,2,3-triazol-2-yl)phenyl)methanone], testing at 10 µM gave an inhibition of 67%.
Consider `Cc1ccc(-c2cnn(C)c2)c(C(=O)N2CCC[C@@H](C)[C@H]2CNc2nnc(C(F)(F)F)s2)c1` [Example A103, ((2S,3R)-3-Methyl-2-(((5-(trifluoromethyl)-1,3,4-thiadiazol-2-yl)amino)methyl)piperidin-1-yl)(5-methyl-2-(1-methyl-1H-pyrazol-4-yl)phenyl)methanone], for which at 10 µM the inhibition was 95%.
For `Cc1ccc(-n2nccn2)c(C(=O)N2CCC[C@@H](C)[C@H]2CNc2ncc3ccccc3n2)c1` [Example A216, ((2S,3R)-3-Methyl-2-((quinazolin-2-ylamino)methyl)piperidin-1-yl)(5-methyl-2-(2H-1,2,3-triazol-2-yl)phenyl)methanone], 10 µM produced 67% inhibition.
Compound `Cc1ccc(-n2nccn2)c(C(=O)N2CCC[C@@H](C)[C@H]2CNc2ccc(Cl)cn2)n1` [Example A178, ((2S,3R)-2-(((5-Chloropyridin-2-yl)amino)methyl)-3-methylpiperidin-1-yl)(6-methyl-3-(2H-1,2,3-triazol-2-yl)pyridin-2-yl)methanone] yielded an inhibition at 10 µM of 64%.
Consider `Cc1cc(C(=O)N2CCC[C@@H](C)[C@H]2CNc2ccc(C(F)(F)F)cn2)c(-n2nccn2)cc1F` [Example A368, (4-Fluoro-5-methyl-2-(2H-1,2,3-triazol-2-yl)phenyl)((2S,3R)-3-methyl-2-(((5-(trifluoromethyl)pyridin-2-yl)amino)methyl)piperidin-1-yl)methanone], for which the inhibition at 10 µM was found to be 83%.
As to `Cc1cccc(C(=O)N2CCC[C@@H](C)[C@H]2CNc2ccc(C(F)(F)F)cn2)c1-n1nccn1` [Example A266, ((2S,3R)-3-Methyl-2-(((5-(trifluoromethyl)pyridin-2-yl)amino)methyl)piperidin-1-yl)(3-methyl-2-(2H-1,2,3-triazol-2-yl)phenyl)methanone], the inhibition at 10 µM amounted to 76%.
Under `Cc1ccc(-c2cnn(C)c2)c(C(=O)N2CCC[C@@H](C)[C@H]2CNc2ncc(C(F)(F)F)cc2F)c1` [Example A83, ((2S,3R)-2-(((3-Fluoro-5-(trifluoromethyl)pyridin-2-yl)amino)methyl)-3-methylpiperidin-1-yl)(5-methyl-2-(1-methyl-1H-pyrazol-4-yl)phenyl)methanone] stands 97%.

The record behind these values is US9440982B2 (Eolas Therapeutics, Inc., priority 2012, dated 2016).
